# From article PMC12521527, “In vivo self-assembled nano-PROTAC for the dual degradation of AR and HSP90 to overcome castration-resistant prostate cancer resistance” (Signal Transduction and Targeted Therapy, 2025)
# System: 22Rv1 xenograft tumor
# Experiment: Antitumor efficacy in 22Rv1 xenograft mice
# Assay type: in vivo, BALB/c nude mice
# Details: comparison study, n = 6; for tumor volume: 20 days, Psa-AR 30 mg/kg i.v. every 2 days x5, enzalutamide 25 mg/kg, pimitespib 15 mg/kg, PBS 1017 mm^3; for median survival: PBS 21 days
# Excerpt: To evaluate the therapeutic potential and superiority of Psa-AR in prostate cancer, we established subcutaneous xenograft tumor models using AR-mutant 22Rv1 cells.[51] All procedures strictly complied with the Guide for the Care and Use of Laboratory Animals and were approved by the Committee for Animal Research of the National Center for Nanoscience and Technology. When the tumor volume reached ~100 mm³, 22Rv1-bearing mice were randomized into three groups (n = 6/group): the PBS control, Psa-AR, and P-AR groups. Treatments were administered via tail vein injection every other day for five cycles. The tumor volume and body weight were monitored every other day for 20 days (Fig. 6a). […] The individual tumor growth curves for each group are presented in Supplementary Fig. 20. No obvious body weight loss was observed during treatment (Fig. 6c). […] To elucidate the mechanistic basis of tumor suppression, we quantitatively assessed AR and HSP90 protein expression in excised tumor tissues through IF. […] This dual-target degradation profile directly correlates with the observed therapeutic efficacy, validating the assembly driven target engagement and degradation strategy. […] To address the critical limitations of conventional PROTACs, particularly the Hook effect-induced nonlinear pharmacokinetics and narrow therapeutic window. We rigorously evaluated the dose-responsive antitumor efficacy of Psa-AR in 22Rv1 xenograft models. Mice bearing subcutaneous tumors received escalating doses (10, 20, or 30 mg/kg) via intravenous administration every 48 h for five consecutive treatment cycles. The tumor volume and body weight were evaluated for 20 days. Tumor volume was suppressed in a dose-dependent manner, with a mean tumor volume of […], a mean tumor volume of 536 mm^3 at 20 mg/kg and a mean tumor volume of 220 mm^3 at 10 mg/kg (Fig. 6h). The individual tumor growth curves for each group are presented in Supplementary Fig. 21. […] IF analysis of tumor sections provided spatially resolved dose-dependent quantification of AR and HSP90 proteolysis. […] Collectively, the dose-dependent tumor suppression and coordinated target proteolysis observed in the 22Rv1 xenograft model mechanistically validated the therapeutic superiority of in situ self-assembled Psa-AR. To systematically evaluate the therapeutic advantages of the dual-protein targeting strategy of Psa-AR through simultaneous degradation of AR and HSP90 in overcoming tumor drug resistance, this study compared the antitumor efficacy of Psa-AR with that of current clinical regimens (including the AR inhibitor enzalutamide, the HSP90 inhibitor pimitespib, and their combination) in 22Rv1 xenograft models (Fig. 7a). The experimental protocol was designed as follows: When the tumor volume reached ~100 mm³, the tumor-bearing mice were
# Fig. 6 In vivo antitumor efficacy of Psa-AR. a Schematic illustration of the tumor inoculation and treatment protocol for 22Rv1 xenograft mice. (n = 6 per group) b Observation of the tumor inhibitory effect on 22Rv1 xenograft mice in PBS, P-AR, or Psa-AR (20 mg/kg in 200 μL of PBS) over 20 days of treatment. c Body weight changes in 22Rv1 xenograft mice in different treatment groups over 20 days. d Kaplan‒Meier survival curves of 22Rv1 xenograft mice in different groups over 20 days of treatment. e Immunofluorescence analysis of AR protein levels in 22Rv1 tumor tissues after treatment with PBS, P-AR, or Psa-AR (20 mg/kg in 200 μL of PBS) for 20 days. Scale bar: 20 μm. f Immunofluorescence analysis of the HSP90 protein levels in 22Rv1 tumor tissues after treatment with PBS, P-AR, or Psa-AR (20 mg/kg in 200 μL of PBS) for 20 days. Scale bar: 20 μm. g Terminal deoxynucleotidyl transferase (TdT) dUTP nick-end labeling (TUNEL) staining of tumors after treatment with PBS, P-AR, or Psa-AR (20 mg/kg in 200 μL of PBS) for 20 days. […]
Compound,tumor volume,median survival
"CCc1cc(C(N)=O)ccc1-n1nc(C(C)C)c2c(-n3cnc(-c4cnn(C)c4)c3)ccnc21 [pimitespib, reference compound]",742 mm^3,29 days
"CNC(=O)c1ccc(N2C(=S)N(c3ccc(C#N)c(C(F)(F)F)c3)C(=O)C2(C)C)cc1F [enzalutamide, reference compound]",765 mm^3,27 days
